According to patent US20240417405A1, “Substituted Spiro Derivatives” (Janssen Pharmaceutica NV, priority 2021, published 2024):
pIC50: −log10 of the molar value.

Tests used:
KO-52 cells = test: Proliferation assay, spheroid-like growth, KO-52 (MLL wildtype control cell line); format: cell-based, human; conditions: Homo sapiens, 192 h, KO-52 control cells, 8 days, confluence as measure of spheroid size; read-out: spheroid assay_OneTime KO-52 IC50
Method: The anti-proliferative effect of menin/MLL protein/protein interaction inhibitor test compounds was assessed in human leukemia cell lines. The cell line MOLM14 harbors a MLL translocation and expresses the MLL fusion proteins MLL-AF9, respectively, as well as the wildtype protein from the second allele. […] KO-52 was used as a control cell line containing two MLL (KMT2A) wildtype alleles in order to exclude compounds that display general cytotoxic effects.
MOLM14 cells were cultured in RPMI-1640 (Sigma Aldrich) supplemented with 10% heat-inactivated fetal bovine serum (HyClone), 2 mM L-glutamine (Sigma Aldrich) and 50 μg/ml gentamycin (Gibco). KO-52 cell lines were propagated in alpha-MEM (Sigma Aldrich) supplemented with 20% heat-inactivated fetal bovine serum (HyClone), 2 mM L-glutamine (Sigma Aldrich) and 50 μg/ml gentamycin (Gibco).
In order to assess the anti-proliferative effects, 200 MOLM14 cells, or 300 KO-52 cells were seeded in 200 μl media per well in 96-well round bottom, ultra-low attachment plates (Costar, catalogue number 7007). Cell seeding numbers were chosen based on growth curves to ensure linear growth throughout the experiment. Test compounds were added at different concentrations and the DMSO content was normalized to 0.3%. Cells were incubated for 8 days at 37° C. and 5% CO2. Spheroid like growth was measured in real-time by live-cell imaging (IncuCyteZOOM, Essenbio, 4× objective) acquiring images at day 8. Confluence (%) as a measure of spheroid size was determined using an integrated analysis tool.
In order to determine the effect of the test compounds over time, the confluence in each well as a measure of spheroid size, was calculated. Confluence of the highest dose of a reference compound was used as baseline for the LC (Low control) and the confluence of DMSO treated cells was used as 0% cytotoxicity (High Control, HC).
Absolute IC50 values were calculated as percent change in confluence as follows:
LC=Low Control: cells treated with e.g. 1 μM of the cytotoxic agent staurosporin, or e.g. cells treated with a high concentration of an alternative reference compound
GraphPad Prism (version 7.00) was used to calculate the IC50. Dose-response equation was used for the plot of % Effect vs Log 10 compound concentration with a variable slope and fixing the maximum to 100% and the minimum to 0%.

MOLM14 cells = test: Proliferation assay, spheroid-like growth, MOLM14 (MLL-AF9 rearranged); format: cell-based, human; conditions: Homo sapiens, MOLM-14, 192 h, 8 days, confluence as measure of spheroid size, read-out: spheroid assay_OneTime MOLM14 IC50
Summary of the method: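 Read-out is spheroid confluence from live-cell images taken on day 8, scaled between DMSO-treated wells (0% cytotoxicity) and a low control such as 1 μM staurosporin. Cells were exposed to compound for 8 days in low-attachment plates; KO-52 served as the MLL-wildtype counterscreen.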

[1] = target: T1, menin/MLL (terbium chelate-labeled menin, FITC-MBM1 peptide) (Homo sapiens, UniProt O00255, T541A); test: Menin/MLL homogenous time-resolved fluorescence (HTRF) assay; format: binding; conditions: 30 min incubation
T1 construct: Menin (a.a 1-610-6xhis tag)
T1 sequence (O00255 with tags, fused parts or gaps T541A): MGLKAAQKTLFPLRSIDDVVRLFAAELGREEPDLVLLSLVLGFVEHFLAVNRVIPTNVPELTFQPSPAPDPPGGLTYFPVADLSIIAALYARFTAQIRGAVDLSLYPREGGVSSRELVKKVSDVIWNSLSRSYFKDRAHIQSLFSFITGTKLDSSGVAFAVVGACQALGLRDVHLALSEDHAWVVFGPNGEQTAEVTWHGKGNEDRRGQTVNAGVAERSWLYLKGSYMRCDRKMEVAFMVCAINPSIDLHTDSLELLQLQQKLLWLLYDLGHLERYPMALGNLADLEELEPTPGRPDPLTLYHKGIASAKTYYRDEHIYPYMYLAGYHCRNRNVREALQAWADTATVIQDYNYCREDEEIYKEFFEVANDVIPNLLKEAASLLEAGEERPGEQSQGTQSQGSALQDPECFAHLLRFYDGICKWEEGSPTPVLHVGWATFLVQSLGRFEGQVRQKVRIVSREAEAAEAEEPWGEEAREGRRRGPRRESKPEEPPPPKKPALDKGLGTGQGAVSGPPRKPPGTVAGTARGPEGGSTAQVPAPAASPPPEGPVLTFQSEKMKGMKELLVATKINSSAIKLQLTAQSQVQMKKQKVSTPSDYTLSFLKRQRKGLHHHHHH
Summary of the method: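 Displacement of FITC-labeled MBM1 peptide (75 nM) from terbium-labeled menin 1-610 (200 pM) measured by HTRF emission ratio. Eleven four-fold dilutions, typically from 10 μM, normalised to saturating-competitor and no-compound controls; IC50 from four-parameter logistic.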

| SMILES | pIC50 (KO-52 cells) | pIC50 (MOLM14 cells) | pIC50 [1] |
| --- | --- | --- | --- |
| CC(C)C(C1CC(C)(O)C1)N1CC2(CCN(c3ncnnc3Oc3ccc(F)cc3-c3cncnc3C3CC3)C2)C1 (single isomer, unassigned) [Compound 159] | 5.96 | 6.96 | 9.52 |
| CC(C)[C@H]([C@H]1C[C@H](N2CCC[C@H](C(=O)N(C)C)C2)C1)N1CC2(CCN(c3ncnnc3Oc3ccc(F)cc3-c3cncnc3C3CC3)C2)C1 (single isomer, unassigned) [Compound 52] | 4.85 | 6.68 | 9.40 |
| CC(C)[C@H]([C@H]1C[C@@H](N2CC[C@]3(CCN(C)C3=O)C2)C1)N1CC2(CCN(c3ncnnc3Oc3ccc(F)cc3-c3cncnc3C3CC3)C2)C1 (single isomer, unassigned) [Compound 67] | < 4.82 | 8.15 | 10.00 |
| CC(C)[C@H]([C@H]1C[C@H](N2CCC(C)(C(=O)N(C)C)CC2)C1)N1CC2(CCN(c3ncnnc3Oc3ccc(F)cc3-c3cncnc3C3CC3)C2)C1 (single isomer, unassigned) [Compound 63] | < 4.82 | 7.24 | – |
| CC(C)[C@H]([C@H]1C[C@@H](N2CCC(O)C(F)C2)C1)N1CC2(CCN(c3ncnnc3Oc3ccc(F)cc3-c3cncnc3C3CC3)C2)C1 (single isomer, unassigned) [Compound 10] | 5.29 | 7.77 | 9.40 |
| CC(C)[C@H]([C@H]1C[C@@H](NC(=O)CCN(C)C)C1)N1CC2(CCN(c3ncnnc3Oc3ccc(F)cc3-c3cncnc3C3CC3)C2)C1 (single isomer, unassigned) [Compound 297] | 4.97 | 8.00 | 10.00 |
| CC(C)C([C@H]1C[C@@H](N(C)C)C1)N1CC2(CCN(c3ncnnc3Oc3ccc(F)cc3-c3cncnc3C3CC3)C2)C1 (single isomer, unassigned) [Compound 7] | 5.30 | 8.40 | 10.00 |
| CC(=O)N1CC[C@]12CCN([C@H]1C[C@@H]([C@@H](C(C)C)N3CC4(CCN(c5ncnnc5Oc5ccc(F)cc5-c5cncnc5C5CC5)C4)C3)C1)C2 (single isomer, unassigned) [Compound 60] | 5.47 | 8.15 | 9.70 |
| CC(C)[C@H]([C@H]1C[C@@H](N2CC[C@@H](C(C)(C)O)C2)C1)N1CC2(CCN(c3ncnnc3Oc3ccc(F)cc3-c3cncnc3C3CC3)C2)C1 (single isomer, unassigned) [Compound 70] | 5.29 | 8.40 | 10.00 |
| CC(C)[C@@H](C1CC(C)(O)C1)N1CC2(CCN(c3ncnnc3Oc3ccc(F)cc3-c3cncnc3C3CC3)C2)C1 (single isomer, unassigned) [Compound 160] | < 4.82 | < 5.43 | 7.63 |
| CC(=O)N1CCN([C@H]2C[C@@H]([C@H](C(C)C)N3CC4(CCN(c5ncnnc5Oc5ccc(F)cc5-c5cnncc5C5CC5)C4)C3)C2)CC1 (single isomer, unassigned) [Compound 104] | 4.93 | 7.14 | 9.70 |
| CC(C)[C@@H]([C@H]1C[C@@H](N2CCC(S(C)(=O)=O)CC2)C1)N1CC2(CCN(c3ncnnc3Oc3ccc(F)cc3-c3ncccc3C3CC3)C2)C1 (single isomer, unassigned) [Compound 26] | < 4.82 | < 6.03 | 8.21 |
| CC(=O)N1CCCC12CN([C@H]1C[C@H]([C@@H](C(C)C)N3CC4(CCN(c5ncnnc5Oc5ccc(F)cc5-c5cncnc5C5CC5)C4)C3)C1)C2 (single isomer, unassigned) [Compound 175] | < 4.82 | 6.96 | 10.00 |
| CC(C)C([C@H]1C[C@H](NCC(C)(C)O)C1)N1CC2(CCN(c3ncnnc3Oc3ccc(F)cc3-c3cncnc3C3CC3)C2)C1 (some centres unmarked) [Compound 134] | 4.88 | 6.89 | – |
| CC(=O)N[C@H]1C[C@@H]([C@H](N2CC3(CCN(c4ncnnc4Oc4ccc(F)cc4-c4cncnc4C4CC4)C3)C2)C23CC(C2)C3)C1 (single isomer, unassigned) [Compound 342] | 5.23 | 7.09 | 9.52 |
| CC(C)C([C@H]1C[C@H](N2CCC(C)(O)CC2)C1)N1CC2(CCN(c3ncnnc3Oc3ccc(F)cc3-c3cncnc3C3CC3)C2)C1 (some centres unmarked) [Compound 130] | < 4.82 | 6.92 | – |
| CC(C)[C@H]([C@H]1C[C@@H](NC(=O)C2CC2)C1)N1CC2(CCN(c3ncnnc3Oc3ccc(F)cc3-c3cccc(=O)n3C3CC3)C2)C1 (single isomer, unassigned) [Compound 190] | 4.83 | 7.12 | – |
| CC(C)C([C@H]1C[C@H](N2CC3(COC3)C2)C1)N1CC2(CCN(c3ncnnc3Oc3ccc(F)cc3-c3ncc(C#N)cc3C3CC3)C2)C1 (some centres unmarked) [Compound 141] | 4.91 | 6.59 | – |
| CC(C)C([C@H]1C[C@@H](N2C[C@H]3COC[C@H]3C2)C1)N1CC2(CCN(c3ncnnc3Oc3ccc(F)cc3-c3cnc(C#N)nc3C3CC3)C2)C1 (some centres unmarked) [Compound 166] | 5.82 | 8.52 | – |
| CC(C)[C@H]([C@H]1C[C@@H](N2CC[C@](C)(O)C2)C1)N1CC2(CCN(c3ncnnc3Oc3ccc(F)cc3-c3cncnc3C3CC3)C2)C1 [Compound 12] | < 4.82 | 8.70 | – |
| Fc1ccc(Oc2nncnc2N2CCC3(C2)CN(C(C2CCN(CC4COC4)CC2)C24CC(C2)C4)C3)c(-c2nnccc2C2CC2)c1 (centres unmarked) [Compound 340] | 4.94 | 6.77 | – |
| CC(C)[C@@H]([C@H]1C[C@@H](NC(=O)C2CC2)C1)N1CC2(CCN(c3ncnnc3Oc3ccc(F)cc3-c3cccc(=O)n3C3CC3)C2)C1 (single isomer, unassigned) [Compound 191] | < 4.82 | < 6.03 | – |
| CO[C@H]1CCN(C2CC(C(C(C)C)N3CC4(CCN(c5ncnnc5Oc5ccc(F)cc5-c5nnc(C)cc5C5CC5)C4)C3)C2)C1 (single isomer, unassigned) [Compound 399] | – | 6.70 | 9.04 |
| CC(C)[C@H]([C@H]1C[C@@H](N2CC3(CCS(=O)(=O)CC3)C2)C1)N1CC2(CCN(c3ncnnc3Oc3ccc(F)cc3-c3cncnc3C3CC3)C2)C1 (single isomer, unassigned) [Compound 249] | – | 8.05 | 10.00 |
| CNC(=O)[C@H]1CCN([C@H]2C[C@@H]([C@H](C(C)C)N3CC4(CCN(c5ncnnc5Oc5ccc(F)cc5-c5cnc(C)nc5C5CC5)C4)C3)C2)C1 [Compound 393] | – | > 8.74 | 9.89 |
| CC(=O)N1CC2(C1)CN([C@H]1C[C@H]([C@H](C(C)C)N3CC4(CCN(c5ncnnc5Oc5ccc(F)cc5-c5cnc(C)cc5C5CC5)C4)C3)C1)C2 (single isomer, unassigned) [Compound 372] | – | 7.74 | 9.70 |
